Values of other authors, collected in article PMC12177174 (iScience, 2025).
Like-named read-outs stand apart in the source and are kept apart here.

What was measured:
[1] = system: tumor; conditions: cited from earlier work
[2] = system: bone mineral density; conditions: cited from earlier work
[3] = cited from earlier work
[4] = cited from earlier work; remark: listed apart in the source
[5] = system: Axin2 mRNA; conditions: cited from earlier work
[6] = system: heart repair; conditions: cited from earlier work
[7] = system: skin fibrosis; conditions: cited from earlier work
[8] = 20 patients, median 22 weeks treatment; cited from earlier work

For `Cn1c(=O)c2c(ncn2CC(=O)Nc2ccc(-c3ccccc3)nn2)n(C)c1=O` [ETC-159], the tumor response [1] is given as “induces tumor regression”, the bone mineral density [2] is given as “caused loss of bone mineral density” and the participants reporting dysgeusia [3] is given as no more than 50%. The “circulating CTX-1 levels” value ([3]; patients with advanced cancer) was “increased circulating CTX-1 levels”.

In the case of `Cc1cc(-c2ncc(CC(=O)Nc3ccc(-c4cnccn4)cn3)cc2C)ccn1` [WNT974], the participants reporting dysgeusia [4] is listed as no more than 50%, the “participants with reduced tumor size” value ([4]; various advanced cancers) is listed as 74% and the “mean reduction in AXIN2 mRNA levels in skin biopsies” value [5] is listed as 50%–60%. For the same compound, the “heart repair following cardiac injury” value [6] was “promoted heart repair”, the skin fibrosis [7] was “prevented progression of skin fibrosis” and the bone mineral density [2] was “caused loss of bone mineral density”. For the same compound, the “patients who developed fragility fractures” value [8] was 45%.
